# Columns and labels:
# Assay type in all cases: in vivo
# [1] = tested on: human colorectal cancer HCT-15; assay: Human tumor xenograft in nude mice, tumor inhibition rate, HCT-15; conditions: HCT-15 xenograft
# Protocol: (§1) 1) Number of animals: there are 6 nude mice for each experimental group and positive control group; weighing: 20-21 g.
# (§2) 2) Dosage and regimen of administration: the dose is described in the portion of the experimental results. The injection volume is 0.2 ml/mouse.
# (§3) 3) Control groups: the negative control is the corresponding vehicle. The positive control is taxol which is a widely clinically used antitumor drug.
# (§4) Under aseptic conditions, a tumor source with vigorous growth was taken to prepare a cell suspension of about 1-3×10^7/ml by a homogenization method. The suspension was injected subcutaneously into subaxillary region of nude mice at 0.2 ml/mouse. The drug was administered upon the tumor touchable. The drug was administered according to the regime. The animals in each group were sacrificed after the administration of three to four weeks. The tumors were taken and weighed, and the tumor inhibition rate was calculated according to the following formula: Tumor inhibition rate %=[(average tumor weight of the negative control group−average tumor weight of the compound administered group)/average tumor weight of the negative control group)×100%
# [2] = tested on: human liver cancer Hep-G2; assay: Human tumor xenograft in nude mice, tumor inhibition rate, Hep-G2
# Protocol: as §1, §2, §3, §4
# human lung cancer A549 = assay: Human tumor xenograft in nude mice, tumor inhibition rate, A549; conditions: alone at 50 mg/kg/d, iv×3, q3d
# [3] = tested on: human prostate cancer PC-3; assay: Human tumor xenograft in nude mice, tumor inhibition rate, PC-3; conditions: PC-3 xenograft, 10 mg/kg/time, iv×7qd
# Protocol: 1) Number of animals: there are 6 nude mice for each experimental group and positive control group; weighing: 20-21 g. The negative control has two groups.
# as §2, §3, §4
smiles,measurement,setting,value
"O=c1[nH]cc(F)c(=O)[nH]1 [5 Fu, 5-fluorouracil]",tumor inhibition rate,"[1]; alone at 15 mg/kg/d, iv×7, qd",42.71%
"N.N.[Cl][Pt][Cl] [DDP, Cisplatin]",tumor inhibition rate,"[2]; alone at 1 mg/kg/d, iv×7, qd",45.33%
Nc1ccn([C@@H]2O[C@H](CO)[C@@H](O)C2(F)F)c(=O)n1 [Gemcitabine],tumor inhibition rate,human lung cancer A549,39.23%
CC(=O)O[C@H]1C(=O)[C@@]2(C)[C@H]([C@H](OC(=O)c3ccccc3)[C@]3(O)C[C@H](OC(=O)[C@H](O)[C@@H](NC(=O)c4ccccc4)c4ccccc4)C(C)=C1C3(C)C)[C@]1(OC(C)=O)CO[C@@H]1C[C@@H]2O [taxol],tumor inhibition rate,"[1]; 10 mg/kg/time, iv×7qd",52.2%
same,tumor inhibition rate,"[2]; 10 mg/kg/time, iv×7qd",52.2%
same,tumor inhibition rate,[3],41.31%
